Patent publication US11892406B2, “Method and device for assaying the interaction and dynamics of permeation of a molecule and a lipid bilayer” (DUBLIN CITY UNIVERSITY, priority 2018, dated 2024)
One block for each compound: values may come before it.

What was measured:
Format in all cases: in vitro ADME
[1] = Metal enhanced fluorescence permeation assay, DOPC bilayer spanned over gold microcavity array
Procedure: (§1) Following removal of PS spheres, if in place, washing and aqueous filling of the array a Langmuir monolayer of lipids was spread across the micropore array, using either a Model 102M, LB trough or Model KN2006 from KSV-NIMA technology, LB alternate. The lipid mixture (across single or diverse lipid compositions) was prepared in chloroform at a concentration of 1 mg/ml. 50 μL of this solution was suspended on the water sub-phase. Fifteen minutes were allocated for evaporation of the solvent, prior to lipid monolayer compression. […]
(§2) A Horiba Labram HR instrument was used for both Raman and fluorescence measurements using a 50× long distance magnification objective (Leica). The wavelengths were typically 473 nm and 785 nm were used for fluorescence measurements and Raman measurements respectively. […] Typically a 1% neutral density filter and 300 μm slit were used for fluorescence and no filter for Raman. […]
(§3) For drug/molecular diffusion studies, drug solutions were prepared as stock solutions for introduction into the bilayer contacting solution dissolved in PBS or Tris buffer at concentrations that permitted final concentrations (on contact with the bilayer buffer) of 1 nM to several millimolar. […] Drug diffusion samples were analysed by first obtaining a bilayer spectra while sample is immersed in PBS. […]

[2] = SERS permeation assay, DOPC lipid bilayer suspended over gold cavity array; settings: 1 um gold array, PBS buffer, 785 nm
Procedure: as §1, §2, §3

[3] = Metal enhanced fluorescence permeation assay, ternary domain forming lipid bilayer on gold microcavity array; settings: 0.1 mM
Procedure: as §1, §2, §3

permeation through DOPC bilayer (fluorescent peak area at 600 nm vs time) ([1]; 0.1 mM, 2-hour monitoring, 1 μm diameter gold array): diffusing through the bilayer
Compound: COc1cccc2c1C(=O)c1c(O)c3c(c(O)c1C2=O)C[C@@](O)(C(=O)CO)C[C@@H]3O[C@H]1C[C@H](N)[C@H](O)[C@H](C)O1 [Doxorubicin]

permeability across DOPC bilayer (dynamics of evolution of SERS signal, presence vs absence of bilayer) [2]: passively permeable
Compound: CC(C)Cc1ccc(C(C)C(=O)O)cc1 (centres unmarked) [Ibuprofen]

Compound: [Ru+2].c1ccc(-c2ccccn2)nc1.c1ccc(-c2ccccn2)nc1.c1ccc(-c2ccccn2)nc1 [[Ru(bpy)3[ complex]
membrane permeability at DOPC bilayers (second emission rise and plateau) ([1]; DOPC bilayers, fluorescence): impermeable

permeability of ternary lipid bilayer to the drug ([3]; 2-hour window, two replicate measurements, DOPC:SM:Chol 40:40:20): impermeable
Compound: COc1cccc2c1C(=O)c1c(O)c3c(c(O)c1C2=O)C[C@@](O)(C(C)=O)C[C@@H]3O[C@H]1C[C@H](N)[C@H](O)[C@H](C)O1 [Duanorubicin]
time for emission to reach steady state ([3]; unstirred solution, ternary bilayer): less than 20 mins
